ChEMBL document CHEMBL1121876, “gamma-Aminobutyric acid agonists, antagonists, and uptake inhibitors. Design and therapeutic aspects” (J Med Chem, 1981)
pEC50, pIC50: −log10 of the molar value.

How the values were obtained:
[1] = target: GABA-A receptor; anion channel; assay: In vitro inhibition of [3H]GABA binding to Gamma-aminobutyric acid receptor of human astrocytes
[2] = Inhibition of neuronal GABA uptake; type: functional
[3] = target: GABA-A receptor; anion channel; assay: In vitro inhibition of [3H]isoguvacine binding to Gamma-aminobutyric acid receptor of human astrocytes
[4] = target: GABA-A receptor; anion channel; assay: In vitro inhibition of [3H]-THIP binding to Gamma-aminobutyric acid receptor of human astrocytes
[5] = target: GABA-A receptor; anion channel; assay: In vitro inhibition of [3H]muscimol binding to Gamma-aminobutyric acid receptor of human astrocytes
[6] = target: GABA-A receptor; anion channel; assay: Activation of binding of [3H]diazepam to Gamma-aminobutyric acid receptor; type: protein-complex assay
[7] = target: GABA-A receptor; anion channel; assay: In vitro inhibition of [3H]P4S binding to Gamma-aminobutyric acid receptor of human astrocytes
[8] = Inhibition of glial GABA uptake; type: functional

Row | SMILES | pIC50 [1] | pIC50 [2] | pIC50 [3] | pIC50 [4] | pIC50 [5] | pEC50 [6] | pIC50 [7] | pIC50 [8]
1 | C[C@@H](N)CCC(=O)O | 5.30 | 3.70 | 5.21 | 5.60 | 5.37 | 3.39 | 4.68 | 3.92
2 | C[C@@H](N)c1cc(O)no1 | 4.72 | < 3.00 | 5.09 | 5.02 | 5.05 | 2.64 | 4.08 | < 3.00
3 | C[C@H](N)CCC(=O)O | 5.33 | 3.12 | 5.28 | 5.54 | 5.60 | 3.26 | 4.62 | 3.00
4 | C[C@H](N)c1cc(O)no1 | 6.19 | < 3.00 | 5.80 | 6.13 | 6.29 | 3.64 | 5.24 | < 3.00
5 | C[C@H](N)/C=C/C(=O)O | 5.39 | < 2.30 | 5.60 | 5.59 | 5.46 | 3.41 | 4.68 | < 2.30
6 | C[C@@H](N)/C=C/C(=O)O | 3.83 | 3.80 | 4.08 | 4.06 | 3.84 | < 2.70 | 3.17 | 3.30
